From ChEMBL document CHEMBL1914322, “Novel terpenoids of the fungus Aspergillus insuetus isolated from the Mediterranean sponge Psammocinia sp. collected along the coast of Israel” (2011)
≈ marks a conversion by molar mass, not a printed value. Calls of active or inactive are those of the source. The rule behind the calls is not given here.

Key:
Neurospora crassa = assay: Antifungal activity against Neurospora crassa 74-OR23-1A after 12 hrs; format: functional
MOLT-4 = assay: Cytotoxicity against human MOLT4 cells at […]; format: functional

| Structure (SMILES) | MIC (Neurospora crassa) [µM] | inhibition (MOLT-4) |
| --- | --- | --- |
| CC(O)C(O)/C=C/C=C/C(=O)O[C@@H]1C=C2COC(=O)[C@]2(O)[C@@]2(C)CCCC(C)(C)[C@H]12 (stereo not given in full) | 162 (≈ 68.1 µg/mL) |  |
| CC1(C)OC(=O)C=C[C@]2(C)[C@@H]3C[C@@]4(C)C(=O)[C@@]5(C)C[C@@H]6C(=O)OC[C@@]64O[C@@]3(CC[C@@H]12)C5 [INSUETOLIDE A] | 140 (≈ 60 µg/mL) | inactive |
| CC1(C)CCC[C@@]2(C)[C@H]1[C@H](O)C=C1COC(=O)[C@@]12O [STROBILACTONE A] | 242 (≈ 64.5 µg/mL) | inactive |
